Test results reported in patent US20230322805A1, “NOVEL PYRIMIDODIAZEPINE DERIVATIVES OR USES THEREOF” (SPARK BIOPHARMA, INC., priority 2020, published 2023).

Key:
[1] = tested on: BiFC-tau Venus HEK293 cells (tau aggregation, hTau441); assay: BiFC-tau Venus HEK293 cell assay monitoring tau aggregation under thapsigargin; type: cell-based, human; conditions: for IC50 / activity at 10 µM: Homo sapiens; for IC50: HEK293, inhibition of BiFC-tau Venus fluorescence, 80 nM thapsigargin, table head prints no unit, μM, read-out: BiFC-tau intensity (IC50); for activity at 10 µM: HEK293-BiFC-tau-Venus cells co-treated with 10 μM compound and 80 nM thapsigargin for 24 hours, read-out: BiFC-tau intensity (%)
Protocol: Phenotype-based screening to monitor tau assembly was performed using BiFC-tau Venus HEK293 cells in a high-throughput manner. Cells were seeded in 384-well plates at a density of 2.8×10^3 cells/well in 40 μL medium for 24 hours. Cells were treated with 80 nM thapsigargin (Sigma-Aldrich) in 10 μL medium and then ˜ 3,000 pDOS library compounds (10 μM), including compounds according to the present invention, using a 0.1 μL pinning tool. For knockdown experiments, cells were transfected with 5 or 10 nM siRNA using Lipofectamine RNAiMAX and incubated for 48 hours before thapsigargin treatment. […] Plates were scanned on an INCell Analyzer 2000 (GE Healthcare) at λex/λem=490/525 nm for Venus fluorescence (for the FITC channel) and λex/λem=350/455 nm for nuclei (for the DAPI channel). Bright-field images were taken to confirm cell morphology, and images were analyzed to quantify Venus intensity per cell using developer software (GE Healthcare).
1-1. According to the method described in Examples 1-15 above, the expression of Venus-based bimolecular fluorescence complemented-tau (BiFC-tau) was confirmed using HEK293 human embryonic kidney cells, thereby phenotyping the phenotype-based screening was performed.
The N-terminal Venus (VN173) and C-terminal Venus (VC155) fragment sequences are fused with the full-length human tau (hTau441) sequence to form the BiFC-tau Venus HEK293 cell system. Soluble tau dimers can be measured by monitoring the turn-on/off signal of Venus fluorescence through co-expression of the two fused vectors, hTau441-VN173 and hTau441-VC1 55.
As a stimulator of tau aggregation, thapsigargin (TG; an ER stress inducer), a direct inhibitor of sarco/endoplasmic reticulum Ca2^+-ATPase, was used. This disrupts calcium homeostasis. Thapsigargin treatment induces tau dimerization (tau aggregation), which can be confirmed by BiFC-tau Venus fluorescence turn-on.

[2] = tested on: acute Alzheimer's mouse model; assay: Acute Alzheimer's mouse model (acquisition and probe test); type: in vivo; conditions: acute Alzheimer's mouse model
Protocol: 7-1. Potential therapeutic effect of SB1617 in an acute Alzheimer's mouse model was identified, and the design for the experiment is schematically shown in FIG. 40
7-3. As a result of confirming the treatment efficacy through a probe test, after removing the platform, it was performed by recording how many times the mouse passed the position where the platform was […]

SMILES | IC50 [1] | activity at 10 µM [1] | melting point | change in Venus fluorescence intensity ([1]; various concentrations with 80 nM TG for 20 hours) | learning ability (Acquisition test), rank order [2]
Cc1ccc(S(=O)(=O)N2[C@H]3CNc4ncnc(N(C)Cc5ccccc5)c4[C@@H]2OC3)cc1 [Compound 101] | 9.1 µM | 65% | 150 to 152 °C | – | –
COc1ccc(S(=O)(=O)N2[C@H]3CNc4ncnc(N(C)Cc5ccccc5)c4[C@@H]2OC3)cc1 [Compound 102] | – | 79% | 121 to 123 °C | – | –
CN(Cc1ccccc1)c1ncnc2c1[C@@H]1OC[C@H](CN2)N1S(=O)(=O)c1ccccc1[N+](=O)[O-] [Compound 103] | – | 102% | – | – | –
CN(Cc1ccccc1)c1ncnc2c1[C@@H]1OC[C@H](CN2)N1S(=O)(=O)c1cccc([N+](=O)[O-])c1 [Compound 104] | – | 115% | – | – | –
CN(Cc1ccccc1)c1ncnc2c1[C@@H]1OC[C@H](CN2)N1S(=O)(=O)c1ccc([N+](=O)[O-])cc1 [Compound 105] | 5.2 µM | 46% | 97 to 99 °C | – | –
CN(Cc1ccccc1)c1ncnc2c1[C@@H]1OC[C@H](CN2)N1S(=O)(=O)c1ccc(F)cc1 [Compound 106] | – | 81% | 105 to 107 °C | – | –
CN(Cc1ccccc1)c1ncnc2c1[C@@H]1OC[C@H](CN2)N1S(C)(=O)=O [Compound 107] | – | 94% | 136 to 138 °C | the activity was lost | –
CN(Cc1ccccc1)c1ncnc2c1[C@@H]1OC[C@H](CN2)N1S(=O)(=O)c1ccccc1 [Compound 108] | – | 105% | 120 to 122 °C | – | –
CN(Cc1ccccc1)c1ncnc2c1[C@@H]1OC[C@H](CN2)N1S(=O)(=O)Cc1ccccc1 [Compound 109] | – | 84% | 78 to 80 °C | – | –
CN(Cc1ccccc1)c1ncnc2c1[C@@H]1OC[C@H](CN2)N1S(=O)(=O)c1cccnc1 [Compound 110] | – | 130% | 185 to 187 °C | – | –
CN(Cc1ccccc1)c1ncnc2c1[C@@H]1OC[C@H](CN2)N1S(=O)(=O)c1cccs1 [Compound 111] | – | 110% | 112 to 114 °C | – | –
CN(C)c1ncnc2c1[C@@H]1OC[C@H](CN2)N1S(=O)(=O)c1ccc([N+](=O)[O-])cc1 [Compound 112] | – | 90% | 118 to 120 °C | – | –
CN(CCc1ccccc1)c1ncnc2c1[C@@H]1OC[C@H](CN2)N1S(=O)(=O)c1ccc([N+](=O)[O-])cc1 [Compound 113] | – | 71% | 108 to 110 °C | – | –
CC(C)N(Cc1ccccc1)c1ncnc2c1[C@@H]1OC[C@H](CN2)N1S(=O)(=O)c1ccc([N+](=O)[O-])cc1 [Compound 114] | 6.9 µM | 47% | 85 to 87 °C | – | –
C=C(C)c1ncnc2c1[C@@H]1OC[C@H](CN2)N1S(=O)(=O)c1ccc([N+](=O)[O-])cc1 [Compound 115] | – | 99% | 200 to 202 °C | – | –
COc1ccc(-c2ncnc3c2[C@@H]2OC[C@H](CN3)N2S(=O)(=O)c2ccc([N+](=O)[O-])cc2)cc1 [Compound 116] | – | 135% | 250 to 252 °C | – | –
CN(Cc1ccc(F)cc1)c1ncnc2c1[C@@H]1OC[C@H](CN2)N1S(=O)(=O)c1ccc([N+](=O)[O-])cc1 [Compound 118] | 7.6 µM | 55% | 102 to 104 °C | – | –
CN(Cc1ccc(N=[N+]=[N-])cc1)c1ncnc2c1[C@@H]1OC[C@H](CN2)N1S(=O)(=O)c1ccc([N+](=O)[O-])cc1 [Compound 119] | 4.6 µM | 56% | 88 to 90 °C | – | –

SMILES | IC50 [1] | activity at 10 µM [1] | melting point | change in Venus fluorescence intensity ([1]; various concentrations with 80 nM TG for 20 hours) | learning ability (Acquisition test), rank order [2]
CN(Cc1ccc(Cl)cc1)c1ncnc2c1[C@@H]1OC[C@H](CN2)N1S(=O)(=O)c1ccc(F)cc1 [Compound 120] | – | 81% | 150 to 152 °C | – | –
COc1ccc(S(=O)(=O)N2[C@H]3CNc4ncnc(N(C)Cc5ccc(Cl)cc5)c4[C@@H]2OC3)cc1 [Compound 121] | 6.6 µM | 51% | 156 to 158 °C | – | –
CC(=O)N1C[C@H]2CO[C@@H](c3c(N(C)Cc4ccc(Cl)cc4)ncnc31)N2S(=O)(=O)c1ccc([N+](=O)[O-])cc1 [Compound 122] | – | 81% | 105 to 107 °C | – | –
CN(Cc1ccc(Cl)cc1)c1ncnc2c1[C@@H]1OC[C@H](CN2C(=O)C2CC2)N1S(=O)(=O)c1ccc([N+](=O)[O-])cc1 [Compound 123] | – | 78% | 124 to 126 °C | – | –
C#Cc1ccc(S(=O)(=O)N2[C@H]3CNc4ncnc(N(C)Cc5ccc(N=[N+]=[N-])cc5)c4[C@@H]2OC3)cc1 [Compound 124] | 8.1 µM | 50% | 139 to 141 °C | – | –
CN(Cc1ccc(Cl)cc1)c1ncnc2c1[C@H]1OC[C@@H](CN2)N1S(=O)(=O)c1ccc([N+](=O)[O-])cc1 [Compound 125] | – | 98% | – | – | –
C=CCOC(=O)N1[C@H]2CNc3ncnc(N(C)Cc4ccc(Cl)cc4)c3[C@@H]1OC2 [Compound 126] | – | 100% | – | – | –
CN(Cc1ccc(Cl)cc1)c1ncnc2c1CN(S(=O)(=O)c1ccc([N+](=O)[O-])cc1)[C@H](CO)CN2 [Compound 127] | – | 100% | – | – | –
CN(Cc1ccc(Cl)cc1)c1ncnc2c1[C@H]1OCC[C@@H](CN2)N1S(=O)(=O)c1ccc([N+](=O)[O-])cc1 [Compound 128] | – | 95% | – | – | –
CN(Cc1ccc(Cl)cc1)c1ncnc2c1[C@@H]1OC[C@H](CN2C(=O)c2ccc(F)cc2)N1S(=O)(=O)c1ccc([N+](=O)[O-])cc1 [Compound 129] | – | 70% | – | – | –
CCN1C[C@H]2CO[C@@H](c3c(N(C)Cc4ccc(Cl)cc4)ncnc31)N2S(=O)(=O)c1ccc([N+](=O)[O-])cc1 [Compound 130] | – | 70% | – | – | –
CN(Cc1ccc(Cl)cc1)c1ncnc2c1[C@@H]1SC[C@H](CN2)N1S(=O)(=O)c1ccc([N+](=O)[O-])cc1 [Compound 131] | – | 98% | – | – | –
CN(Cc1ccc(Cl)cc1)c1ncnc2c1[C@@H]1SC[C@@H](CN2)N1C(=O)OC(C)(C)C [Compound 132] | – | 80% | – | – | –
CN(Cc1ccc(Cl)cc1)c1ncnc2c1[C@@H]1SC[C@H](CN2)N1C(=O)Nc1ccc([N+](=O)[O-])cc1 [Compound 133] | – | 94% | – | – | –
CN(Cc1ccc(Cl)cc1)c1ncnc2c1[C@H]1N(S(=O)(=O)c3ccc([N+](=O)[O-])cc3)[C@@H](CN2)CS1(=O)=O [Compound 134] | – | 100% | – | – | –
COc1ccc(CN(C)c2ncnc3c2[C@@H]2SC[C@H](CN3)N2S(=O)(=O)c2ccc([N+](=O)[O-])cc2)cc1 [Compound 135] | – | 57% | – | – | –
CNc1ncnc2c1[C@@H]1OC[C@H](CN2)N1S(=O)(=O)c1ccc([N+](=O)[O-])cc1 [Compound 136] | – | 10% | – | – | –
COc1cc2c(cc1OC)C(=O)C(CC1CCN(Cc3ccccc3)CC1)C2 (centres unmarked) [Donepezil, reference compound] | – | – | – | – | WT >Donepezil >SB-1617>Vehicle
